This note sets out measurements from patent publication US20160052898A1, “NOVEL COMPOUNDS” (BAYER PHARMA AKTIENGESELLSCHAFT, priority 2013, published 2016).

What all share (type): cell-based
For assay [1], the system named is HEK293 FOP control reporter cell line. The experiment in a line: HEK293 FOP control vector reporter assay. Conditions: Homo sapiens; HEK293 FOP control reporter cells, EC50 concentration of recombinant Wnt-3a, 16 hours incubation; read-out: HEK FOP IC50. The essentials: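 Stable HEK293 cells carrying FOP control vector (non-functional TCF sites), 10000 cells/well plated 24 h before, stimulated with recombinant human Wnt-3a at 2500–5 ng/ml in two-fold steps. Compounds from 50 μM to 15 nM (3.16-fold) in CAFTY buffer pH 7.4 with 2 mM Ca2+, 0.01% BSA, run in parallel with TOP line; luciferase read-out.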
On the technique in general: In a reporter assay the amount or activity of a reporter protein is the signal.

For assay [2], the system named is HCT116 FOP control reporter cell line. The experiment in a line: HCT116 FOP control vector reporter assay (non-functional TCF elements). The settings on record: Homo sapiens, HCT-116, 36 h, HCT116 FOP control reporter cells, luciferase expression, 36 hours incubation, 50 μM to 15 nM; read-out: HCT116 FOPFlash IC50. The method, boiled down:
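Stable HCT116 line carrying the non-functional FOP luciferase construct, 10000 cells/well plated 24 hrs before. Compounds 50 μM to 15 nM (3.16-fold steps) in CAFTY buffer pH 7.4 with 2 mM Ca2+, 36 hours at 37° C; luciferase luminescence read.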

Assay [3] deals with constitutive active colorectal cancer cell (CRC) Wnt pathway. Briefly: HCT116 Super TopFlash cellular reporter assay (constitutive active Wnt pathway). The settings on record: Homo sapiens, HCT-116, 36 h, HCT116 TOP reporter cells, luciferase expression, 36 hours incubation, 50 μM to 15 nM. The essentials:
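Luciferase luminescence served as the Wnt read-out after 36 h of compound treatment at 37 °C. Compound came from a pre-dilution series (50 μM down to 15 nM, 3.16-fold steps) in CAFTY buffer. Cells were stable HCT116 TOP reporter cells, with matched FOP-vector control cells tested in parallel, seeded a day earlier.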

For assay [4], the system named is wildtype Wnt pathway. Briefly: HEK293 Super TopFlash cellular reporter assay, Wnt-3a stimulated (wildtype Wnt pathway). The settings on record: Homo sapiens; HEK293 TOP reporter cells, EC50 concentration of recombinant Wnt-3a, 16 hours incubation; read-out: HEK TOP OncoFlash IC50. The essentials:
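Stable HEK293 Super TopFlash and FOP reporter cells stimulated with recombinant human Wnt-3a (2500–5 ng/ml, two-fold steps). Compounds tested 50 μM to 15 nM in 3.16-fold steps in CAFTY buffer pH 7.4 with 2 mM Ca2+ and 0.01% BSA; luciferase read-out.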

A word on the IC50: it is the concentration at which inhibition is half-maximal. For `C[C@@H](C(=O)Nc1cc(NC(=O)c2ccc(-c3ccccc3)cc2)ccc1OC(F)(F)F)N1CCOCC1` [Example 62, N-[3-{[(2S)-2-(morpholin-4-yl)propanoyl]amino}-4-(trifluoromethoxy)phenyl]biphenyl-4-carboxamide], the IC50 in assay [1] is 8000 nM; in assay [2] it was no less than 50000 nM; in assay [3] it was 61 nM; in assay [4], 55 nM.

As to `COc1ccc(NC(=O)c2ccc(-c3ccccc3)cc2)cc1NC(=O)CN1C[C@@H]2C[C@H]1CO2` [Example 33, N-(4-methoxy-3-{[(1S,4S)-2-oxa-5-azabicyclo[2.2.1]hept-5-ylacetyl]amino}phenyl)biphenyl-4-carboxamide], the IC50 is 9000 nM in assay [1], no less than 50000 nM in assay [2], 435 nM in assay [3] and 400 nM in assay [4].

Turning to `O=C(Nc1ccc(-c2ccccc2)cc1)c1ccc(OC(F)(F)F)c(NC(=O)C2(N3CCOCC3)CC2)c1` [Example 94, N-(biphenyl-4-yl)-3-({[1-(morpholin-4-yl)cyclopropyl]carbonyl}amino)-4-(trifluoromethoxy)benzamide], the IC50 was 7600 nM in assay [1], no less than 50000 nM in assay [2], 10.9 nM in assay [3] and 5.09 nM in assay [4].

`COc1ccc(NC(=O)c2ccc(-c3ccccc3)cc2)cc1NC(=O)CN1CCSCC1` [Example 37, N-{4-methoxy-3-[(thiomorpholin-4-ylacetyl)amino]phenyl}biphenyl-4-carboxamide]: the IC50 was no less than 50000 nM in assay [1], no less than 50000 nM in assay [2], 1250 nM in assay [3] and 640 nM in assay [4].

`O=C(CN1CCOCC1)Nc1cc(NC(=O)c2ccc(-c3ccccc3)cc2)ccc1OC(F)(F)F` [Example 66, N-{3-[(morpholin-4-ylacetyl)amino]-4-(trifluoromethoxy)phenyl}biphenyl-4-carboxamide]: the IC50 in assay [1] is no less than 50000 nM; in assay [2], no less than 50000 nM; in assay [3] it was 39.2 nM; in assay [4], 1600 nM.

For the molecule `COc1ccc(NC(=O)c2ccc(-c3ccccc3F)cc2)cc1NC(=O)CN1CCOCC1` [Example 82, 2′-fluoro-N-{4-methoxy-3-[(morpholin-4-ylacetyl)amino]phenyl}biphenyl-4-carboxamide], the IC50 was no less than 50000 nM in assay [1], no less than 50000 nM in assay [2], 325 nM in assay [3] and 1700 nM in assay [4].

Consider `CC(=O)NCCCOc1ccc(C(=O)Nc2ccc(-c3ccccc3)cc2)cc1NC(=O)C1(N2CCOCC2)CC1` [Example 90, 4-(3-acetamidopropoxy)-N-(biphenyl-4-yl)-3-({[1-(morpholin-4-yl)cyclopropyl]carbonyl}amino)benzamide], for which the IC50 in assay [1] amounted to 6100 nM; in assay [2], 27400 nM; in assay [3], 50 nM; in assay [4] it was 20.6 nM.

For the molecule `CC(C)Oc1ccc(C(=O)Nc2ccc(-c3ccccc3)cc2)cc1NC(=O)CN1CCOCC1` [Example 25, N-(biphenyl-4-yl)-4-isopropoxy-3-[(morpholin-4-ylacetyl)amino]benzamide], the IC50 in assay [1] was no less than 50000 nM; in assay [2], no less than 50000 nM; in assay [3], 43.7 nM; in assay [4] it was 120 nM.

`COCCOCc1ccc(C(=O)Nc2ccc(-c3ccccc3)cc2)cc1NC(=O)CN1CCOCC1` [Example 86, N-(biphenyl-4-yl)-4-[(2-methoxyethoxy)methyl]-3-[(morpholin-4-ylacetyl)amino]benzamide]: the IC50 in assay [1] is no less than 50000 nM; in assay [2], no less than 50000 nM; in assay [3], 87 nM; in assay [4], 610 nM.

On to `C[C@@H](C(=O)Nc1cc(C(=O)Nc2ccc(-c3ccccc3)cc2)ccc1C(F)(F)F)N1CCOCC1` [Example 15, N-(biphenyl-4-yl)-3-{[(2S)-2-(morpholin-4-yl)propanoyl]amino}-4-(trifluoromethyl)benzamide], for which the IC50 in assay [1] turned out to be 4000 nM; in assay [2], 39500 nM; in assay [3], 29.6 nM; in assay [4] it was 100 nM.

For the molecule `CSc1ccc(C(=O)Nc2ccc(-c3ccccc3)cc2)cc1NC(=O)CN1CCOCC1` [Example 109, N-(biphenyl-4-yl)-4-(methylsulfanyl)-3-[(morpholin-4-ylacetyl)amino]benzamide], the IC50 in assay [1] is no less than 50000 nM; in assay [2], no less than 50000 nM; in assay [3], 48.8 nM; in assay [4], 280 nM.

`O=C(Nc1ccc(-c2ccccc2)cc1)c1ccc(OCc2ccccc2)c(NC(=O)C2(N3CCOCC3)CC2)c1` [Example 88, 4-(benzyloxy)-N-(biphenyl-4-yl)-3-({[1-(morpholin-4-yl)cyclopropyl]carbonyl}amino)benzamide]: the 50% inhibitory concentration (IC50) was no less than 50000 nM in assay [1], no less than 50000 nM in assay [2], 44.8 nM in assay [3] and 93 nM in assay [4].

For the molecule `CC(C)(C(=O)Nc1cc(C(=O)Nc2ccc(-c3ccccc3)cc2)ccc1C(F)(F)F)N1CCOCC1` [Example 17, N-(biphenyl-4-yl)-3-{[2-methyl-2-(morpholin-4-yl)propanoyl]amino}-4-(trifluoromethyl)benzamide], the half-inhibitory concentration (IC50) is 33000 nM in assay [1], no less than 50000 nM in assay [2], 240 nM in assay [3] and 290 nM in assay [4].

With `COC(=O)c1ccc(C(=O)Nc2ccc(-c3ccccc3)cc2)cc1NC(=O)CN1CCOCC1` [Example 12, methyl 4-(biphenyl-4-ylcarbamoyl)-2-[(morpholin-4-ylacetyl)amino]benzoate], the IC50 is no less than 50000 nM in assay [1], no less than 50000 nM in assay [2], 40 nM in assay [3] and 440 nM in assay [4].

With `C[C@@H](C(=O)Nc1cc(NC(=O)c2ccc(-c3ccccc3)cc2)ccc1F)N1CCOCC1` [Example 30, N-(4-fluoro-3-{[(2S)-2-(morpholin-4-yl)propanoyl]amino}phenyl)biphenyl-4-carboxamide], the IC50 was 9200 nM in assay [1], no less than 50000 nM in assay [2], 1640 nM in assay [3] and 920 nM in assay [4].

As to `O=C(CN1CCOCC1)Nc1cc(NC(=O)c2ccc(-c3cccc(F)c3)cc2)ccc1OC(F)(F)F` [Example 74, 3′-fluoro-N-{3-[(morpholin-4-ylacetyl)amino]-4-(trifluoromethoxy)phenyl}biphenyl-4-carboxamide], the IC50 in assay [1] was 8300 nM; in assay [2] it was no less than 50000 nM; in assay [3], 47 nM; in assay [4] it was 140 nM.

For the molecule `COc1ccc(NC(=O)c2ccc(-c3ccccc3)cc2)cc1NC(=O)C(C)N1CCOCC1` (stereo not shown) [Example 53, N-(4-methoxy-3-{[2-(morpholin-4-yl)propanoyl]amino}phenyl)biphenyl-4-carboxamide], the IC50 was 6200 nM in assay [1], no less than 50000 nM in assay [2], 480 nM in assay [3] and 290 nM in assay [4].

As for `CCNC(=O)c1ccc(C(=O)Nc2ccc(-c3ccccc3)cc2)cc1NC(=O)CN1CCOCC1` [Example 102, N^4-(biphenyl-4-yl)-N^1-ethyl-2-[(morpholin-4-ylacetyl)amino]terephthalamide], the IC50 in assay [1] came to 5800 nM; in assay [2], 28900 nM; in assay [3], 45.9 nM; in assay [4], 41 nM.

For the molecule `COCc1ccc(C(=O)Nc2ccc(-c3ccccc3)cc2)cc1NC(=O)C1(N2CCOCC2)CC1` [Example 95, N-(biphenyl-4-yl)-4-(methoxymethyl)-3-({[1-(morpholin-4-yl)cyclopropyl]carbonyl}amino)benzamide], the IC50 in assay [1] was no less than 50000 nM; in assay [2], no less than 50000 nM; in assay [3], 4.58 nM; in assay [4] it was 16 nM.

`O=C(CN1CCOCC1)Nc1cc(C(=O)Nc2ccc(-c3ccccc3)cc2)ccc1C(F)(F)F` [Example 9, N-(biphenyl-4-yl)-3-[(morpholin-4-ylacetyl)amino]-4-(trifluoromethyl)benzamide]: the IC50 was no less than 50000 nM in assay [1], no less than 50000 nM in assay [2], 40 nM in assay [3] and 120 nM in assay [4].

As to `O=C(Nc1ccc(-c2ccccc2)cc1)c1ccc(C(F)(F)F)c(NC(=O)C2(N3CCOCC3)CC2)c1` [Example 98, N-(biphenyl-4-yl)-3-({[1-(morpholin-4-yl)cyclopropyl]carbonyl}amino)-4-(trifluoromethyl)benzamide], the IC50 in assay [1] is no less than 50000 nM; in assay [2], no less than 50000 nM; in assay [3], 7.24 nM; in assay [4], 86 nM.

With `O=C(CN1CCOCC1)Nc1cc(C(=O)Nc2ccc(-c3ccccc3)cc2)ccc1OC1CC1` [Example 112, N-(biphenyl-4-yl)-4-(cyclopropyloxy)-3-[(morpholin-4-ylacetyl)amino]benzamide], the IC50 in assay [1] was no less than 50000 nM; in assay [2], no less than 50000 nM; in assay [3], 83.2 nM; in assay [4], 77 nM.
